Laboratory results published in patent publication US20210324281A1, “FUEL DERIVED FROM RENEWABLE RESOURCES” (priority 2018, published 2021).

Tests used:
[1] = RapidOxy oxidative stability measurement (DIN EN 16091, 140° C., 700 kPa oxygen); assay type: physicochemical; details: for oxidative stability standard according to EN 14214: 500 ppm in Plantanol with 1 wt.-% solketal, FIG. 15; for oxidative stability of the single, pure component: standard: induction time above 33.3 min, FIG. 8
Method: In this method, the pressure of a closed, with oxygen filled and afterwards heated sample chamber is measured against time. […] Therefore, the samples are heated up to 140° C. with an oxygen pressure of 700 kPa. […] The incubation time is the period between the start of the experiment and until the pressure dropped by 10% compared to the maximum pressure in the sample chamber. In FIG. 8 etc., this limit is indicated by a dashed line.
For this purpose, the samples were heated up to 140° C. at 700 kPa in an oxygen atmosphere. Thereafter the device measured the pressure with respect to the time. The measurement automatically stopped once a decrease of the pressure of 10% occurred. The time needed for this decrease by 10% is called “induction time” and represents a characteristic quantity for the oxidative stability of a fuel. The quantity “ppm” (parts per million) in the present experimental examples refers to a molar ratio (n/n), if not stated otherwise.

[2] = Solubilisation of hydrophilic antioxidants in biofuel by glycerol derivatives; assay type: physicochemical
Method: As a proof of concept, analogous experiments were carried out with the biofuel “Plantanol” from industry. […] The samples were prepared by dissolving the respective antioxidants in solketal.

Staphylococcus aureus = experiment: Modified broth dilution in biphasic biofuel (Plantanol)/water system, turbidity at 600 nm; assay type: cell-based; details: for amount needed relative to ferulic acid to achieve the same effect: 10 wt.-% versus 0.25 wt.-% ferulic acid in Plantanol; for absorbance of the aqueous phase after incubation: medium pre-incubation 0.12, FIG. 20
From the text: (§1) The growth of microbes in the fuel is one of the main problems of biofuels, as set out above. The aim of the experiments was to investigate the bacterial growth in the biphasic biofuel/water system to see how the addition of an antimicrobial additive to the biofuel has an impact on the microbial growth in the aqueous bacteria solution. For this purpose, the so-called “broth dilution” method was modified and applied to the biphasic (biofuel+additive)/(water+bacteria) system.
(§2) This method represents a standard test for the investigation of bactericidal substances (e.g. antibiotics). At first, bacteria are incorporated in water that contains a nutrient medium (e.g. blood or yeast extracts). The potential antimicrobial agents are then added to the bacteria solution and the mixture is incubated over night at a certain temperature.
(§3) The concentration of bacteria can be measured by means of photometric spectroscopy as the presence of bacteria in a solution lead to turbidity. The higher the turbidity, the more bacteria are present in the solution. […] In some cases, the turbidity even decreases (=bacteria die).
(§4) The above-mentioned method was modified and applied to the biofuel/water system. For this purpose, there was one type of gram-negative (Escherichia coli) and gram-positive bacteria (Staphylococcus aureus) incorporated in each aqueous medium. The so-called “LB-medium” (lysogeny broth) was used as the nutrient medium. The biofuel (with and without additive) was then added to the bacteria solution leading to a phase separation of the biofuel (top) and aqueous medium (bottom).
(§5) The samples were incubated in a so-called incubator shaker, to ensure a good mixing of the two phases. Thereafter, the samples were taken out of the incubator and it was waited until complete phase separation occurred (˜30 minutes). Lastly, the aqueous phase was transferred and measured photometrically at a wavelength of A=600 nm.
(§6) Thus, the turbidity of the aqueous phase solely arises from the bacteria's presence in the water. Depending on the magnitude of the turbidity, it can be concluded whether and how the addition of a certain compound to the biofuel affects the bacterial growth in the aqueous medium.
(§7) For this purpose, different concentrations of antimicrobial substances were added to the biofuel and the effect of these substances on the turbidity of the samples was investigated. On the one hand, hydrophobic, biofuel-soluble bactericides were used (Eugenol, Carvacrol) and on the other hand hydrophilic, biofuel-insoluble substances (caffeic acid, gallic acid, ferulic acid) were used. The glycerol derivative solketal was used to make the hydrophilic substances soluble in the biofuel.
(§8) The chosen concentrations for Grotamar82 and Liqui Moly were the ones recommended by the manufacturer. For both products, there is a recommended concentration for prevention of diesel bug as well as a recommended “shock dosage” in case of an already existing microbial contamination. 1000 ppm of Grotamar82 as well 5000 ppm of the product by Liqui Moly are recommended as a “shock dosage” while 250 ppm and 1000 ppm are recommended to achieve an effective protection against diesel bug.
(§9) Additionally, formaldehyde was added to the Plantanol as the kinetics of the hydrolysis of MBO (cf. the above scheme) in Grotamar82 were not known. Grotamar82 contains about 20% of MBO, according to the manufacturer. Thus, a complete hydrolysis of the MBO in 250 ppm and 1000 ppm Grotamar82 would result in the production of 50 ppm and 200 ppm of formaldehyde respectively.

Escherichia coli = experiment: as above; assay type: cell-based; details: for effect on bacterial growth compared with Staphylococcus aureus: in Plantanol with solketal; for effect on bacterial growth compared with Staphylococcus aureus / bacterial growth (turbidity of the aqueous phase): FIG. 19; for microbial growth (turbidity of the aqueous phase): FIG. 21
From the text: as §1, §2, §3, §4, §5, §6, §7, §8, §9

[3] = 330 ppm in 63/27/10 biodiesel (FAME)/rapeseed oil/solketal, FIG. 14
[4] = 0.1-0.25 wt.-% in Plantanol, solubilised with solketal, FIG. 18
[5] = 333 ppm in 63/27/10 FAME/rapeseed oil/solketal, FIG. 16

CC(C)(C)c1cc(O)ccc1O [TBHQ, 2-tert-butyl hydroquinone, reference compound]
oxidative stability standard according to EN 14214 [1]: not reached

Oc1ccc(O)cc1 [hydroquinone, reference compound]
oxidative stability of the biofuel ([1]; 0.2 wt.-% in solketal system (60 wt.-% FAME, 30 wt.-% rapeseed oil, 10 wt.-% solketal), FIG. 9): distinctly increased
oxidative stability of the biofuel ([1]; 160 ppm in solketal system (60/30/10), FIG. 9): not enough to fulfill the standard
oxidative stability of the biofuel (EN 14214) [1, 3]: enough to make the biofuel fulfil the standard
oxidative stability standard according to EN 14214 [1]: not reached

O=C(O)/C=C/c1ccc(O)c(O)c1 [caffeic acid]
amount of solketal found preferable to solubilize the additive ([2]; 0.1 wt % of additive in Plantanol): up to 10 wt %
bacterial growth (turbidity of the aqueous phase) (Staphylococcus aureus; [4]): distinctly reduced
effect on bacterial growth compared with Staphylococcus aureus (Escherichia coli): smaller effect on the E.-coli bacteria than they had on the Staphylococcus aureus
oxidative stability of the biofuel (EN 14214) [1, 3]: enough to make the biofuel fulfil the standard

O=C(O)c1cc(O)c(O)c(O)c1 [gallic acid]
amount of solketal sufficient to solubilize the additive ([2]; 500 ppm of additive in Plantanol): < 0.5 wt %
bacterial growth (turbidity of the aqueous phase) (Staphylococcus aureus; [4]): distinctly reduced
effect on bacterial growth compared with Staphylococcus aureus (Escherichia coli): smaller effect on the E.-coli bacteria than they had on the Staphylococcus aureus
oxidative stability of the biofuel (EN 14214) [1, 3]: enough to make the biofuel fulfil the standard
oxidative stability of the biofuel (EN 14214) [1, 5]: stabilization above the minimum of EN 14214
induction time versus concentration, ranking ([1]; solketal system, higher concentrations, FIG. 11): most effective

CCCOC(=O)c1cc(O)c(O)c(O)c1 [propyl gallate]
oxidative stability of the biofuel ([1]; tributyrin system (60 wt.-% FAME, 30 wt.-% rapeseed oil, 10 wt.-% tributyrin), FIG. 12): the higher the concentration of the antioxidant, the better the stability toward oxidation is

O=C1O[C@H]([C@@H](O)CO)C(O)=C1O [vitamin C, ascorbic acid]
effect of addition on oxidative stability ([1]; 167 ppm added to the system containing 333 ppm DHB, FIG. 16): no effect on the overall stability
effect of addition on oxidative stability ([1]; 167 ppm added to the system containing 333 ppm GA, FIG. 16): distinct increase of the oxidative stability
effect of addition on oxidative stability ([1]; 167 ppm added to the system containing 333 ppm HT, FIG. 16): distinct increase of the oxidative stability

OCCc1ccc(O)c(O)c1 [hydroxytyrosol]
oxidative stability of the biofuel (EN 14214) [1, 3]: enough to make the biofuel fulfil the standard
oxidative stability of the biofuel (EN 14214) [1, 5]: stabilization above the minimum of EN 14214

O=c1c(O)c(-c2ccc(O)c(O)c2)oc2cc(O)cc(O)c12 [quercetin]
oxidative stability of the biofuel (EN 14214) [1, 3]: enough to make the biofuel fulfil the standard

C=CCc1ccc(O)c(OC)c1 [Eugenol, reference compound]
bacterial growth (turbidity of the aqueous phase) (Staphylococcus aureus; 2 wt.-% in Plantanol, FIG. 18): no effect on the bacterial growth
bacterial growth (turbidity of the aqueous phase) (Staphylococcus aureus; 10 wt.-% in Plantanol, FIG. 18): completely inhibited the growth
amount needed relative to ferulic acid to achieve the same effect (Staphylococcus aureus): 40 times
bacterial growth (turbidity of the aqueous phase) (Escherichia coli; 10 wt.-% in Plantanol): distinctly reduced it

CCCC(=O)OCC(COC(=O)CCC)OC(=O)CCC [Tributyrin, glycerol tributyrate]
oxidative stability of the single, pure component [1]: insensitive toward oxidation

Cc1ccc(C(C)C)cc1O [Carvacrol, reference compound]
bacterial growth (turbidity of the aqueous phase) (Staphylococcus aureus; 2 wt.-% in Plantanol, FIG. 18): no effect on the bacterial growth
bacterial growth (turbidity of the aqueous phase) (Staphylococcus aureus; 10 wt.-% in Plantanol, FIG. 18): completely inhibited the growth
amount needed relative to ferulic acid to achieve the same effect (Staphylococcus aureus): 40 times
bacterial growth (turbidity of the aqueous phase) (Escherichia coli; 10 wt.-% in Plantanol): distinctly reduced it

CC1(C)OCC(CO)O1 (stereo not shown) [solketal, isopropylideneglycerol]
oxidative stability of the single, pure component [1]: oxidised nearly as fast as 2-methylfuran

COc1cc(/C=C/C(=O)O)ccc1O [ferulic acid]
bacterial growth (turbidity of the aqueous phase) (Staphylococcus aureus; 0.1 wt % dissolved in solketal, in Plantanol, FIG. 20): drastically decreases
absorbance of the aqueous phase after incubation (Staphylococcus aureus; 0.25 wt % in solketal/Plantanol): below 0.12
bacterial growth (turbidity of the aqueous phase) (Staphylococcus aureus; 0.25 wt.-% in Plantanol, FIG. 18): complete inhibition
absorbance of the aqueous phase after incubation (Staphylococcus aureus; 0.5 wt % in solketal/Plantanol): below 0.12
microbial growth (turbidity of the aqueous phase) (Escherichia coli; 0.1 wt % in solketal, in Plantanol): significantly decreased microbial growth
microbial growth (turbidity of the aqueous phase) (Escherichia coli; 0.25 wt % in Plantanol): No growth of bacteria was observable
bacterial growth (turbidity of the aqueous phase) (Escherichia coli; 0.25 wt.-% in Plantanol): distinctly reduced it
microbial growth (turbidity of the aqueous phase) (Escherichia coli; 0.50 wt % in Plantanol): No growth of bacteria was observable
